The values below come from publication PMC7312527 (International Journal of Molecular Sciences, 2020).

Data set [1] has as its target T1, Amyloid β peptide (1–42) (Aβ42) (Homo sapiens, UniProt P05067).
T1 construct: Amyloid β peptide (1–42) (Aβ42) was purchased from Sigma Aldrich; purchased Sigma Aldrich
Nature of the data set: Inhibition of self-induced Aβ42 aggregation (thioflavin-T assay). In kind it is biochemical.

Data set [2] concerns the target EeAChE (Electrophorus electricus, UniProt O42275). Put plainly: Kinetic characterization of EeAChE inhibition (Lineweaver–Burk plot). It is filed as biochemical. To be noted: inhibitor 25, 75, 100 nM. The procedure: Compound 3e was selected and kinetic studies were performed similar to the enzyme inhibition assay. […]. 0.05–0.5 mM). All processes were assayed in triplicate.

Data set [3] concerns SH-SY5Y cells. Put plainly: Neuroprotection against oxidative stress induced by H2O2 (MTT). In kind it is cell-based, human. The conditions noted are these: H2O2 100 µM.
Data set [4] has as its system SH-SY5Y cells. Put plainly: Neuroprotection against rotenone/oligomycin A, pre-incubation (MTT). In kind it is cell-based, human. The conditions noted are these: R/O mixture, 0.0001 µM.
The target in data set [5] is AChE from electric eel (Electrophorus electricus, UniProt O42275). Nature of the data set: biochemical.
The subject of data set [6] is histone H3 phosphorylation (Ser10) in human astrocytes. Put plainly: Global histone H3 phosphorylation (Ser10) colorimetric assay. It is filed as cell-based. To be noted: for amount of phosphorylated H3Ser10 / phosphorylation of H3Ser10 in comparison to 100% control: 24 h. The procedure:
Cell culture: Human astrocytes (HA, Sciencell, USA) were grown in the Astrocyte Cell Medium (Sciencell) supplemented with 2% fetal bovine serum (Sciencell), 1% Astrocyte Cell Growth Supplement (Sciencell), and 1% penicillin/streptomycin solution (Sciencell). Cells were cultured in the incubator at 37 °C and 5% CO2. To start the experiment, cells were seeded at the density of 1.5 × 10^6 cells/well in the flasks and were kept in the incubator (37 °C, 5% CO2) for 24 h. After the incubation period, the medium was removed. Then, the cells were exposed to compound 3c (1 µM and 0.025 µM) or nothing but control medium for 24 h. Then, cells were collected and histone extracts from them were prepared.
The levels of histone H3 phosphorylation (Ser10) were determined using a Global Histone H3 phosphorylation (Ser10) colorimetric assay kit (Epigentek) according to the manufacturer’s instructions. In the assay, the phosphorylated histone H3 at ser10 is captured in the wells of a 96-well plate coated with an anti-phospho histone H3 antibody. The captured phosphorylated histone H3 (Ser10) is detected with a labeled detection antibody followed by a color development reagent. […]

The nature of data set [7]: in vitro. In kind it is cell-based. To be noted: human, human hepatic stellate cells (HSCs), HSCs, 24 h, read-out: hepatotoxicity (MTT; cell viability as percentage of control). The procedure:
Human hepatic stellate cells (HSCs, Sciencell) were cultured in the Stellate Cell Medium (Sciencell) with 1% Stellate Cell Growth Supplement, 2% fetal bovine serum (FBS), and 1% penicillin/streptomycin solution (Sciencell). Cells were kept in the incubator (37 °C, 5% CO2). At the beginning of the experiment, cells were seeded in the 96-well plates at a density of 5 × 10^3 cells per well and incubated in the incubator for 24 h. After the incubation period, medium was removed and HSCs were exposed to 100 µL of the compound solutions over a range of concentrations (10–0.1 µM) or nothing but culture medium (blank control). Cells were further incubated for 24 h. At the end, medium was removed, cells were washed with PBS, and 50 µL of the MTT solution (0.75 mg/mL) was added to the cells. Plates were kept in the dark for 2 h at 37 °C. Finally, the MTT solution was removed and 100 µL of DMSO was added to each well. Plates with DMSO were kept at room temperature for 10 min. After this time, 5 µL of Sorensen Buffer was added to each well. Plates were swayed and the absorbance was measured at a wavelength of 570 nm by a microplate reader (Synergy H1, BioTek). The cell viability was expressed as a percentage of the control values (blank control).

T1 sequence (P05067 672-713 limits assumed): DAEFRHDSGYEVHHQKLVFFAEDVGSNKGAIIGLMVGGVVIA
Chain of AChE from electric eel (O42275 24-633): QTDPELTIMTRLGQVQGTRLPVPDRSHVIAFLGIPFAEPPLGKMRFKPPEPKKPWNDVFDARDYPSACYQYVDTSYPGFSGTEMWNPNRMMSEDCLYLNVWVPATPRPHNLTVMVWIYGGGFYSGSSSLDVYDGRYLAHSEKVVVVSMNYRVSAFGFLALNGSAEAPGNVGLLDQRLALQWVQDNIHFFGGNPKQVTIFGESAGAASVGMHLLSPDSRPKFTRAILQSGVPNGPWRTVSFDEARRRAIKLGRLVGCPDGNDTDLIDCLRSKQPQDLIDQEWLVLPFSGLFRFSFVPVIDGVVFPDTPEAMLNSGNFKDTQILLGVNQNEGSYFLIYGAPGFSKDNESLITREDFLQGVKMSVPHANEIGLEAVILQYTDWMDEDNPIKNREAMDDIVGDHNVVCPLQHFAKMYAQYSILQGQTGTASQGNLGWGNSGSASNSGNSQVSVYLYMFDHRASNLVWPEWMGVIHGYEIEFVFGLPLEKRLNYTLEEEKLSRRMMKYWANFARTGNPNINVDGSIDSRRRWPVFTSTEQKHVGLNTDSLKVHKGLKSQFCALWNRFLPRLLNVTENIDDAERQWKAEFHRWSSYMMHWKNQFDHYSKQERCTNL
Chain of EeAChE (O42275 24-633): as above

In the case of `O=C(NCCCCNc1c2c(nc3ccccc13)CCCC2)c1cc(Cl)cc(Cl)c1` [Compound 3c], the “Inhibition of Aβ aggregation” value is 23% in data set [1] (5 µM) and 32% in data set [1] (100 µM). The inhibition (in general, the change of the read-out against control, counted positive when it falls) at 5 µM in data set [1] (5 µM, read-out: Inhibition of Aβ aggregation) was 23.5%. In addition, the inhibition at 10 µM in data set [1] (10 µM, read-out: Inhibition of Aβ aggregation) amounted to 24.3%. Also, the inhibition at 25 µM in data set [1] (25 µM, read-out: Inhibition of Aβ aggregation) was found to be 25.8%. In addition, the inhibition at 50 µM in data set [1] (50 µM, read-out: Inhibition of Aβ aggregation) amounted to 26.7%. For the same molecule, the inhibition at 100 µM in data set [1] (100 µM, read-out: Inhibition of Aβ aggregation) was found to be 31.8%. In addition, the “Inhibition of Aβ42 aggregation” value in data set [1] (at all concentrations (5–100 µM)) was “more than 23%”. The “inhibition type of EeAChE” value in data set [2] is listed as “mixed-type inhibition”. Further, the neuroprotection in data set [3] (compound 0.01 µM) is reported as 46.17%; in data set [3] (compound 0.1 µM) it was 36.48%; in data set [3] (compound 1 µM) it was 0%; in data set [3] (compound 10 µM), 0%; in data set [4], 2.84%. Also, the “Selectivity for AChE” value in data set [5] (IC50 (BuChE)/IC50(AChE)) is recorded as 4.864. For the same molecule, the IC50 (in general, the concentration at which inhibition is half-maximal) in data set [5] (means ± SD of three independent experiments, read-out: EeAChE IC50 ± SD) is 25 ± 3 nM. Further, the entries for the “amount of phosphorylated H3Ser10” value in data set [6] (0.025 µM) and in data set [6] (1 µM) were 28.26 µg/mg and 29.08 µg/mg, respectively. Moreover, the “phosphorylation of H3Ser10 in comparison to 100% control” value is on record as 105.64% in data set [6] (0.025 µM) and 108.69% in data set [6] (1 µM). Besides, in data set [6] (1 µM and 0.025 µM), the DNA damage result is recorded as “not observed”. For the same molecule, the viability at 24 h, 0.1 µM in data set [7] (0.1 µM) is 99.9%. For the same molecule, the viability at 24 h, 1 µM in data set [7] (1 µM) was found to be 95.4%. Moreover, the viability at 24 h, 10 µM in data set [7] (10 µM) came out at 87.4%.
